Measured values reported in the supplement of paper PMC10307832.

Columns and labels:
Experiment in all cases: relative viability (nuclei count vs DMSO), 5 days (fraction); higher = more cells survive
AZD8055 = compound: COc1ccc(-c2ccc3c(N4CCOC[C@@H]4C)nc(N4CCOC[C@@H]4C)nc3n2)cc1CO [AZD8055]
Summary of the method: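 For viability, nuclei in each treated well were divided by nuclei in vehicle wells and the median across plates was taken. Lung cancer cell lines in 1536-well plates were pinned with five library-drug doses (not always all listed) spaced by √10, cultured 5 days without medium change, and imaged at 4× after Hoechst staining, with plates passing only at control CV below 25% and at least one doubling.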

AZD8055 + Trametinib = compound: COc1ccc(-c2ccc3c(N4CCOC[C@@H]4C)nc(N4CCOC[C@@H]4C)nc3n2)cc1CO [AZD8055] + CC(=O)Nc1cccc(-n2c(=O)n(C3CC3)c(=O)c3c(Nc4ccc(I)cc4F)n(C)c(=O)c(C)c32)c1 [Trametinib] (partner 0.02 µM)
Summary of the method: (§1)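 Medians of duplicate plates are given as relative viability. That measure is the nuclei count in treated wells divided by the count in vehicle wells. Counts were taken on 4× images of lung cancer cell lines in 1536-well plates, 5 days after pin-tool dosing the day after seeding with one drug alone or a fixed anchor-drug dose plus five library-drug doses (not always all listed) in √10 steps.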

AZD8055 + OSI-027 = compound: COc1ccc(-c2ccc3c(N4CCOC[C@@H]4C)nc(N4CCOC[C@@H]4C)nc3n2)cc1CO [AZD8055] + COc1cccc2cc(-c3nc([C@H]4CC[C@H](C(=O)O)CC4)n4ncnc(N)c34)[nH]c12 [OSI-027] (partner 0.5 µM)
Summary of the method: as §1

AZD8055 + Phenformin = compound: COc1ccc(-c2ccc3c(N4CCOC[C@@H]4C)nc(N4CCOC[C@@H]4C)nc3n2)cc1CO [AZD8055] + N=C(N)NC(=N)NCCc1ccccc1 [Phenformin] (partner 250 µM)
Summary of the method: as §1

| Cell Line | relative viability (AZD8055; 0.01 µM) | relative viability (AZD8055; 0.03162 µM) | relative viability (AZD8055; 0.1 µM) | relative viability (AZD8055; 0.3162 µM) | relative viability (AZD8055; 1 µM) | relative viability (AZD8055 + Trametinib; first compound 0.01 µM) | relative viability (AZD8055 + Trametinib; first compound 0.03162 µM) | relative viability (AZD8055 + Trametinib; first compound 0.1 µM) | relative viability (AZD8055 + Trametinib; first compound 0.3162 µM) | relative viability (AZD8055 + Trametinib; first compound 1 µM) | relative viability (AZD8055 + OSI-027; first compound 0.01 µM) | relative viability (AZD8055 + OSI-027; first compound 0.03162 µM) | relative viability (AZD8055 + OSI-027; first compound 0.1 µM) | relative viability (AZD8055 + OSI-027; first compound 0.3162 µM) | relative viability (AZD8055 + OSI-027; first compound 1 µM) | relative viability (AZD8055 + Phenformin; first compound 0.01 µM) | relative viability (AZD8055 + Phenformin; first compound 0.03162 µM) | relative viability (AZD8055 + Phenformin; first compound 0.1 µM) | relative viability (AZD8055 + Phenformin; first compound 0.3162 µM) | relative viability (AZD8055 + Phenformin; first compound 1 µM) |
| --- | --- | --- | --- | --- | --- | --- | --- | --- | --- | --- | --- | --- | --- | --- | --- | --- | --- | --- | --- | --- |
| PC-14 | 1.23 | 1.09 | 0.715 | 0.286 | 0.178 | 0.743 | 0.715 | 0.179 | 0.108 | 0.138 | 1.2 | 0.849 | 0.497 | 0.283 | 0.109 | 0.857 | 0.595 | 0.284 | 0.216 | 0.167 |
| RERF-LC-KJ | 1.05 | 0.942 | 0.822 | 0.458 | 0.414 | 0.871 | 0.816 | 0.649 | 0.378 | 0.38 | 0.587 | 0.671 | 0.522 | 0.387 | 0.362 | 0.374 | 0.378 | 0.383 | 0.303 | 0.303 |
| SK-LU-1 | 1.05 | 0.82 | 0.628 | 0.388 | 0.366 | 0.579 | 0.447 | 0.358 | 0.284 | 0.3 | 0.354 | 0.372 | 0.337 | 0.289 | 0.242 | 0.526 | 0.436 | 0.288 | 0.247 | 0.226 |
| SK-MES-1 | 0.967 | 0.892 | 0.809 | 0.408 | 0.289 | 0.462 | 0.543 | 0.354 | 0.313 | 0.303 | 0.653 | 0.629 | 0.557 | 0.338 | 0.22 | 0.658 | 0.645 | 0.608 | 0.311 | 0.216 |
| SW 1573 | 1.05 | 0.751 | 0.704 | 0.326 | 0.203 | 0.559 | 0.518 | 0.379 | 0.193 | 0.15 | 0.696 | 0.528 | 0.47 | 0.221 | 0.18 | 0.324 | 0.218 | 0.193 | 0.163 | 0.14 |
| UMC-11 | 0.942 | 0.711 | 0.607 | 0.345 | 0.322 | 0.77 | 0.489 | 0.453 | 0.319 | 0.253 | 0.494 | 0.452 | 0.367 | 0.302 | 0.284 | 0.353 | 0.311 | 0.311 | 0.264 | 0.213 |
